Measurements published in US20140295012A1, “LATENT HUMAN IMMUNODEFICIENCY VIRUS REACTIVATION” (priority 2011, published 2014).
Like-named read-outs stand apart in the source and are kept apart here. Where a SMILES comes first, the peptide text is derived from it. The star is where a group is joined. Cbz = O=C(OCc1ccccc1)*

How the values were obtained:
Format in all cases: cell-based
[1] = system: latently HIV-1 infected CA5 T cells; conditions: for priming effect on HIV-1 reactivation by sub-optimal dose of HRF: CA5 cells pretreated with increasing concentrations; for effect of higher concentrations on HIV-1 reactivation triggered by HRF or TNF-α: correlated with high levels of cytotoxicity
Experimental: (§1) Infection levels in the cell cultures were monitored by flow cytometric analysis of EGFP expression. Flow cytometric analysis was performed on a GUAVA EasyCyte (Millipore; Billerica, Mass.), or a LSRII (Becton & Dickinson; Franklin Lakes, N.J.).
Bacterial growth. Bacteria from various sources were isolated on TSA II agar plates containing 5% sheep blood. Bacterial isolates were then grown in RPMI 1640 medium supplemented with 10% FBS. After two days of incubation at 37° C. bacteria were pelleted and resuspended in RPMI medium to an optical density (OD600) of 8, aliquoted and frozen at −80° C. Unless otherwise indicated, Massilia timonae was grown in RPMI 1640 medium supplemented with 10% FBS. Typically, medium was inoculated with Massilia timonae from frozen stocks to an OD600 of 0.01. After 48 hours at 37° C., the culture was centrifuged at 3200 g to separate bacteria from the culture medium. Bacteria were resuspended in fresh medium to an OD600 of 8 and frozen to be used as references and stock cultures. The supernatant was then centrifuged at 10,000 g for 20 minutes and sterilized by passage through a 0.2 μm PVDF filter with low protein binding ability. HRF activity was determined by its ability to reactivate latent HIV-1 infection in CA5 cells. Only supernatants of which 6 μl reactivated infection in at least 60% of CA5 cells were used to study HRF properties.
Flow cytometry. Infection levels in the cell cultures were monitored by flow cytometric (FCM) analysis of GFP expression. FCM analysis was performed on a GUAVA EasyCyte (GUAVA Technologies, Inc.; Millipore; Billerica, Mass.) and a BD FACSCalibur or a LSRII (Becton & Dickinson; Franklin Lakes, N.J.). Cell sorting experiments were performed using a FACSAria™ Flow Cytometer (Becton&Dickinson). Data analysis was performed using either CellQuest (Becton&Dickinson) or GUAVA Express (GUAVA Technologies, Inc.).
To identify the optimal concentration of dactinomycin, CA5 T cells were pretreated with increasing concentrations of dactinomycin (0.0001 and 1 μg/ml), and then left untreated or stimulated with a sub-optimal concentration of HRF or TNF-α. Representative results for stimulation with HRF are depicted in FIG. 3. The chosen HRF concentration has only minimal HIV-1 reactivating effect by itself (15% reactivation over background). Twenty four hours after activator addition, levels of HIV-1 reactivation were determined as the percentage of GFP-positive cells using flow cytometric analysis, which allowed for the simultaneous determination of cell viability. […] Optimal pretreatment time was 18 hours. Maximum reactivation effects were seen 48 hours after stimulation.

[2] = system: latently HIV-1 infected CA5 T cells
HIV-1 LTR = test: Tat-independent activation of integrated LTR-GFP construct in NOMI reporter T cells; conditions: 24 hours
Experimental: (§2) FIGS. 6A-6C show HRF triggers suboptimal functional induction of NF-κB dependent gene expression. […] The HIV-1 reactivating kinetics were determined by stimulating CA5 T cells with optimal concentrations of HRF, phorbol 12-myristate 13-acetate (PMA) and tumor necrosis factor-α (TNF-α) and analyzing HIV-1 reactivation as a function of EGFP-expression over a period of 48 hours. Data for all agents are depicted as the percentage of EGFP-positive cells in the total cell population. […] To test the ability of HRF to mediate Tat-independent activation of the HIV-1 LTR, NOMI cells (HIV-1 reporter cell line with an integrated LTR-EGFP construct) were stimulated with increasing concentrations of PMA (0.01-10 ng/ml), TNF-α (0.003-30 μg/ml) and HRF supernatant (0.3-100 μl). The level of LTR-induction was then measured as EGFP-expression detectable after 24 hours as determined by flow cytometric analysis. Arrows indicate the concentrations at which the respective stimulus would have triggered full HIV-1 reactivation in the latently HIV-1 infected CA5 T cell line. […] 293T cells were transfected with several NF-κB dependent promoter constructs and then stimulated with either TNF-α (10 μg/ml) or HRF (25 μl). Promoter induction was measured as total EGFP expression. (NF-κB:pNF-κB-d2EGFP; LTR:HIV-1 LTR-GFP; IL-8:pIL-8 GFP; TNF:human TNF-GFP; MSCV:murine stem cell virus LTR driven GFP; no NF-κB responsive elements).
As the NF-κB pathway has been recognized as vital to HIV-1 activation, the ability of HRF to trigger NF-κB activation was investigated. It was initially determined that HRF had the ability to stimulate Tat independent activation of an integrated LTR-GFP construct in NOMI reporter T cells.

[3] = system: latently HIV-1 infected J89GFP T cells; test: HIV-1 reactivation / priming in latently HIV-1 infected J89GFP T cells (GFP, flow cytometry, HTS); conditions: 10 ng/ml PMA; three J89GFP populations
Experimental: Flow cytometry. Infection levels in the cell cultures were monitored by flow cytometric (FCM) analysis of GFP expression. […] Cell sorting experiments were performed using a FACSAria™ Flow Cytometer (Becton&Dickinson). Data analysis was performed using either CellQuest (Becton&Dickinson) or GUAVA Express (GUAVA Technologies, Inc.).

[4] = system: chronically actively infected T cell lines (JNLG#35 and JNLG#44); test: Active HIV-1 transcription in chronically actively infected T cell lines JNLG#35 and JNLG#44 (GFP MCF); conditions: 48 hours
Experimental: Changes in HIV-1 transcription levels were determined after 48 hours by measuring GFP mean channel fluorescence intensity (GFP MCF). GFP MCF was plotted over the drug concentration for dactinomycin (FIG. 12A), the DNA intercalators daunorubicin (DM) (FIG. 12B) and rebeccamycin (RM) (FIG. 12C), as well as the transcription inhibitors ICRF-193 (FIG. 12D), DRB (FIG. 12E) and α-amanitin (FIG. 12F). The size of symbols indicates the respective cell viability in the sample (size range adjusted to 5-95%).
For this purpose, each of the compounds was titrated over a relevant range of concentrations on two chronically actively infected T cell lines (JNLG#35 and JNLG#44). These clonal cell lines are infected with a GFP-reporter virus. Forty eight hours after addition of the compounds, the effect of each compound on HIV-1 transcription was determined by flow cytometric analysis quantifying GFP mean channel fluorescence intensity (MCF).

[5] = system: NF-κB dependent promoters in 293T cells; test: NF-κB dependent promoter constructs transfected into 293T cells (EGFP expression)
Experimental: as §2
The utilized EGFP reporter virus HIV-1 NLENG1-IRES has been described elsewhere (Kutsch et al., J. Virol. 76:8776-86 (2002); Levy et al., Proc. Natl. Acad. Sci. USA 101:4204-9 (2004)). The reporter plasmid pNF-κB-d2EGFP was purchased from Clontech (Mountain View, Calif.). The LTR-GFP construct and the IL-8 reporter construct have been described earlier (Choi et al., Mol. Cell. Biol. 22:724-36 (2002)). The TNF-promoter construct was generated by cloning the human TNF-α promoter element defined by primer pair 5′-BglII; 5′-[…] […]-3′ (SEQ ID NO:2) and 3′-AgeI; 5′-[…] […]-3′ (SEQ ID NO:3) into pd2EGFP (Clontech). MSCV-GFP was generated by cloning the EGFP-gene into retroviral pMSCV-puro vector (Clontech).

[6] = system: latently HIV-1 infected monocytic THP89GFP cells; test: HIV-1 reactivation in latently infected monocytic THP89GFP cells
[7] = system: latently HIV-1 infected reporter T cell lines; conditions: four latently infected reporter T cell lines; culture supernatant
Experimental: FIGS. 1A and 1B show culture supernatants from Massilia timonae reactivate latent HIV-1 infection. […] Untreated control cells and HRF-treated cells were subjected to flow cytometric analysis to determine enhanced green fluorescent protein (EGFP) expression as a direct and quantitative marker of HIV-1 expression 24 hours post stimulation. FSC/SSC dot plots are represented to evaluate cell viability as a function of changes in the FSC (cell size)-SSC (granularity) phenotype of the cells. FIG. 1B is a histogram showing the reproducibility of the observed HIV-1 reactivation. Three independent preparations of HRF (batches HRF1-3) on four different latently infected T cell lines (5F3, 8E12, CA5 and 12D4) were tested. The percentage of EGFP positive cells following stimulation is depicted in the histogram. Cell culture supernatants of Pseudomonas aeruginosa cultures, grown under similar conditions, were used as specificity controls.
as §1

O=C1[O][Pt]2([NH][C@@H]3CCCC[C@H]3[NH]2)[O]C1=O [oxaliplatin]
priming effect on HIV-1 reactivation by sub-optimal dose of HRF [1]: not reproduced

CC(=O)NCCCCCCNC(C)=O [HMBA, Hexamethylene bisacetamide]
optimal concentration as HIV-1 priming agent prior to onset of drug mediated toxicities [1]: 3 to 10 mM
HIV-1 reactivation (cells) ([2]; 3 mM): 15%
HIV-1 reactivation (cells) ([2]; 9 mM): 35%
compound toxicity ([2]; 9 mM): onset of compound toxicity
HIV-1 reactivation levels ([2]; HMBA alone, overall): < 40%
reactivation ([2]; combination of HMBA and TNF-α): 81%
reactivation ([2]; optimal dose of HMBA alone): 27%
priming for full reactivation by sub-optimal TNF-α ([2]; sub-toxic concentrations): relatively potent at priming latent HIV-1 infection

OC[C@H]1O[C@@H](n2cnc3cc(Cl)c(Cl)cc32)[C@H](O)[C@@H]1O [DRB, 5,6 dichloro-beta-D-ribofuranosylbenzimidazole]
effect of higher concentrations on HIV-1 reactivation triggered by HRF or TNF-α [1]: inhibit HIV-1 reactivation

CCCCCCCCCCCCCC(=O)O[C@@H]1[C@@H](C)[C@@]2(O)[C@@H](C=C(CO)C[C@]3(O)C(=O)C(C)=C[C@@H]23)[C@@H]2C(C)(C)[C@]12OC(C)=O [PMA, phorbol 12-myristate 13-acetate]
Tat-independent activation of integrated LTR-GFP construct (GFP expression) (HIV-1 LTR): stimulated Tat-independent activation
Maximum achievable HIV-1 reactivation levels [3]: 90±3%

CC[C@H](C)[C@@H]1NC(=O)CNC(=O)[C@@H]2Cc3c([nH]c4cc(O)ccc34)[S+]([O-])C[C@@H](NC(=O)CNC1=O)C(=O)N[C@@H](CC(N)=O)C(=O)N1C[C@H](O)C[C@H]1C(=O)N[C@@H]([C@@H](C)[C@@H](O)CO)C(=O)N2 (stereo in doubt) [α-amanitin]
priming effect on HIV-1 reactivation by sub-optimal dose of HRF [1]: None of the inhibitors exerted a priming effect
priming effect on HIV-1 reactivation by sub-optimal dose of HRF ([1]; listed as α-aminitin): did not exhibit any priming effect
effect of higher concentrations on HIV-1 reactivation triggered by HRF or TNF-α [1]: inhibit HIV-1 reactivation

C=C(c1ccc(C(=O)O)cc1)c1cc2c(cc1C)C(C)(C)CCC2(C)C [bexarotene]
effect with bryostatin on latent HIV-1 infection ([2]; bexarotene overnight pretreatment, CA5 T cells): synergistic effect
priming of latent HIV-1 infection for reactivation by a second stimulus ([2]; pretreatment 2 hours or overnight): primed latent HIV-1 infection for reactivation by a second stimulus in a synergistic manner

COc1cccc2c1C(=O)c1c(O)c3c(c(O)c1C2=O)C[C@@](O)(C(C)=O)C[C@@H]3O[C@H]1C[C@H](N)[C@H](O)[C@H](C)O1 [daunorubicin]
effect on active HIV-1 infection / transcription (GFP MCF) [4]: boosted active HIV-1 transcription
priming effect on HIV-1 reactivation by sub-optimal dose of HRF [1]: not reproduced
priming effect on HIV-1 reactivation by sub-optimal dose of HRF ([1]; listed as Dauno): did not exhibit any priming effect

CC(C)C[C@@H](C=O)NC(=O)[C@H](CC(C)C)NC(=O)[C@H](CC(C)C)NC(=O)OCc1ccccc1 [MG132] (Cbz-Leu-Leu-Leu-aldehyde)
priming effect on HIV-1 reactivation by sub-optimal dose of HRF [1]: did not exhibit any priming effect

CC(=O)O[C@@]12C[C@@H](C)[C@@]3(O)[C@@H](C=C(CO)C[C@]4(O)C(=O)C(C)=C[C@@H]34)[C@@H]1C2(C)C [prostratin]
interaction with bexarotene [2]: interact with bexarotene to reactivate latent HIV-1 infection

TNF-α
Tat-independent activation of integrated LTR-GFP construct (GFP expression) (HIV-1 LTR): stimulated Tat-independent activation
reactivation ([1]; sub-optimal dose of TNF-α alone): 32%
GFP expression driven by NF-κB responsive promoter constructs (IL-8, TNF-α, HIV-1 LTR, three consensus NF-κB sites) [5]: efficiently induced
GFP expression of construct under control of murine stem cell virus LTR (no NF-κB responsive element) [5]: Neither TNF-α nor HRF influenced GFP expression

CO[C@H]1[C@H](O)[C@@H](O)[C@H](n2c3c(Cl)cccc3c3c4c(c5c6cccc(Cl)c6[nH]c5c32)C(=O)NC4=O)O[C@@H]1CO [rebeccamycin]
effect on active HIV-1 infection / transcription (GFP MCF) [4]: boosted active HIV-1 transcription
priming effect on HIV-1 reactivation by sub-optimal dose of HRF [1]: not reproduced

CC[C@@]1(O)C(=O)OCc2c1cc1n(c2=O)Cc2cc3ccccc3nc2-1 [camptothecin]
priming effect on HIV-1 reactivation by sub-optimal dose of HRF [1]: None of the inhibitors exerted a priming effect

lipopolysaccharide
HIV-1 reactivation [6]: reactivated HIV-1 infection
HIV-1 reactivation [7]: only reactivated HIV-1 infection in the latently HIV-1 infected monocytic THP89GFP cells
